Source: patent US6716829B2, “Aldosterone antagonist and cyclooxygenase-2 inhibitor combination therapy to prevent or treat inflammation-related cardiovascular disorders” (Pharmacia Corporation, priority 2000, dated 2004)
“And” between values parts separate entries of the source, which are not always exact repeats. Equal entries are not always repeated. “Also recorded” adds a separate entry of the source.

What was measured:
[1] = tested on: angiotensin II infused rats; assay: Assay A, angiotensin II infusion model: systolic blood pressure by tail-cuff; type: in vivo, Male Wistar rats; conditions: angiotensin II 25 ng/min sc, 1% NaCl; eplerenone 100 mpk; aldosterone in adrenalectomized rats; 4 weeks
Procedure: Human cardiovascular disorders are complex conditions, often initiated by vascular hypertension or a myocardial infarction (MI). In order to determine the probable effectiveness of a therapy for cardiovascular disorders, it is important to determine the potency of components in several assays. Accordingly, in Assay “A”, the efficacy of the aldosterone antagonist epeplerenone (epoxymexrenone) was determined in a hypertensive rat model with vascular inflammation, using angiotensin II infusion. In Assay “B” a study is described evaluating the efficacy of the aldosterone antagonist epeplerenone (epoxymexrenone) in a rat model using aldosterone infusion to produce hypertension with vascular inflammation. In Assay “C” a further study is described evaluating the efficacy of the aldosterone antagonist epeplerenone (epoxymexrenone) in a rat model using aldosterone infusion to produce hypertension with vascular inflammation.
Assay A: In Vivo Angiotensin II Infusion Model
Male Wistar rats (n=50, 10/group; BW=200 g)
SBP measured by tail-cuff every week

[2] = tested on: aldosterone + salt treated uninephrectomized rats; assay: Assay C, further aldosterone infusion study: radiotelemetrized arterial (systolic) blood pressure; type: in vivo, Male Sprague-Dawley rats; conditions: for Systolic Blood Pressure (mmHg): mean ± SEM of values every 5 min over 24-hour period
Procedure: Assay C: Further In Vivo Aldosterone Infusion Study
The procedure of Assay B was expanded upon in a further study. […] Myocardial tissue from animals in each treatment group was examined after 7, 14, or 30 days of treatment.
Male Sprague-Dawley rats, weighing 230 to 250 g, (Harlan Sprague-Dawley Industries, Indianapolis, IN) were housed in a room 12-hours light/12-hours dark daily cycle at an ambient temperature of 22±1° C. (n=96). Animals were allowed one week to adjust after arrival and had free access to TEKLAD 22/5 rodent diet (Harlan TEKLAD, Madison, Wis.) and tap water until the initiation of the experiment.
Potassium chloride supplementation was added to the saline solution in order to prevent the potential hypokalemia associated with aldosterone excess.
At the time of the surgery, an Alzet 2002 osmotic minipump (Alza Corp., Palo Alto, Calif.) containing either vehicle (9% ethanol/87% propylene glycol/4% dH2O) or 1.0 mg/mL d-aldosterone (Sigma Chemical, St. Louis, Mo.) was inserted subcutaneously at the nape of the neck. Aldosterone was administered at a dose of 0.75 µg/hour. […] Animals were sacrificed from each group (n=8-13) after 7, 14, or 30 days of treatment.
Animals to be sacrificed after 7 or 14 days of treatment were uninephrectomized and implanted with an Alzet minipump. Animals treated for 30 days were uninephrectomized, fitted for Alzet minipumps, and implanted with radio telemetry units (model #TA11PA-C40, Data Sciences Inc., St. Paul, Minn.) according to the following procedure. Animals were anesthetized with 5% isoflurane (SOLVAY Animal Health Inc., Mendota Heights, Minn.), which was delivered in O2 using a VMS anesthesia instrument (Matrix Medical, Inc., Orchard Park, N.Y.). Anesthesia was maintained with 1-2% isoflurane throughout the surgical procedure. The surgery site was clipped, scrubbed with nolvasan, and sprayed with betadine. A rostral-caudal incision was made through the skin from the base of the rib cage to the pubic region using a #11 scalpel blade. A second incision was made through the muscles of the abdominal wall to expose the peritoneal cavity. The […], renal artery and vein of the left kidney were isolated, tied off with 4-0 silk, and the kidney excised and discarded. Organs were carefully displaced with tissue retractors in order to expose the abdominal aorta. A 1.5 cm segment just rostral to the bifurcation of the abdominal aorta into the iliac arteries was cleared of excessive connective tissue and 4-0 silk was used to make an anchor adjacent to the aorta. A microvascular clip was then placed at both ends of the cleaned region to stop excessive blood flow. Using a bent, 21 gauge needle, the abdominal aorta was penetrated. The cannula of the radio telemetry unit was inserted and stabilized in the aorta using the 4-0 silk anchor. Organs were repositioned and the telemetry unit was placed over the organs. Using a non-interrupted suture pattern with 4-0 silk, the abdominal wall was closed, and the skin was subsequently closed using a 4-0 silk in an interrupted suture pattern. Animals were injected around the sutures with 100 μL of the anesthetic Marcaine HCl (Sanofi Winthrop Pharmaceuticals, New York, N.Y.) and given an injection (i.m.) of the antibiotic Mandol (Eli Lilly & Co., Indianapolis, Ind.). Post-operative care included monitoring the animals on a heating pad during recovery from anesthesia until sternal recumbency was reestablished. Animals were monitored daily for signs of distress and infection at the surgical site. Animals displaying continued discomfort after surgery were treated with 0.1-0.5 mg/kg, s.c. Buphrenorphine (Rickett & Colman Pharmaceuticals, Inc. Richmond, Va.). Animals were then placed on tap water and TEKLAD 22/5 rodent diet (Harlan TEKLAD, Madison, Wis.).
Radiotelemetrized arterial blood pressure was calculated with the […]

In the case of C[C@]12CCC(=O)C=C1CC[C@@H]1[C@@H]2[C@@H](O)C[C@]2(C=O)[C@@H](C(=O)CO)CC[C@@H]12 [Aldosterone], the Systolic Blood Pressure [1] is reported as “increased blood pressure”, the “Systolic Blood Pressure” value ([2]; Day 3, individual rats, 30-day protocol, listed as Aldosterone + salt) is reported as 116 mmHg and 152 mmHg and 115 mmHg and 127 mmHg and 143 mmHg and 122 mmHg and 124 mmHg and 159 mmHg and the “Systolic Blood Pressure (mmHg)” value ([2]; Day 3) is reported as 132 ± 6 mmHg. The “Systolic Blood Pressure” value ([2]; Day 4, individual rats, 30-day protocol, listed as Aldosterone + salt) was 120 mmHg and 149 mmHg and 122 mmHg and 134 mmHg and 129 mmHg and 135 mmHg and 125 mmHg and 152 mmHg, the “Systolic Blood Pressure (mmHg)” value ([2]; Day 4) was 133 ± 4 mmHg and the “Systolic Blood Pressure” value ([2]; Day 5, individual rats, 30-day protocol, listed as Aldosterone + salt) was 126 mmHg and 158 mmHg and 124 mmHg and 142 mmHg and 129 mmHg and 137 mmHg and 128 mmHg and 151 mmHg. For the same compound, the “Systolic Blood Pressure (mmHg)” value ([2]; Day 5) was 137 ± 4 mmHg, the “Systolic Blood Pressure” value ([2]; Day 6, individual rats, 30-day protocol, listed as Aldosterone + salt) was 132 mmHg and 170 mmHg and 136 mmHg and 157 mmHg and 144 mmHg and 149 mmHg and 135 mmHg and 158 mmHg and the “Systolic Blood Pressure (mmHg)” value ([2]; Day 6) was 148 ± 5 mmHg. For the same compound, the “Systolic Blood Pressure” value ([2]; Day 7, individual rats, 30-day protocol, listed as Aldosterone + salt) was 140 mmHg and 179 mmHg and 139 mmHg and 165 mmHg (2×) and 153 mmHg and 154 mmHg and 145 mmHg, the “Systolic Blood Pressure (mmHg)” value ([2]; Day 7) was 155 ± 5 mmHg and the “Systolic Blood Pressure” value ([2]; Day 8, individual rats, 30-day protocol, listed as Aldosterone + salt) was 145 mmHg and 182 mmHg and 143 mmHg and 160 mmHg and 158 mmHg and 154 mmHg and 146 mmHg and 163 mmHg. For the same compound, the “Systolic Blood Pressure (mmHg)” value ([2]; Day 8) was 156 ± 4 mmHg, the “Systolic Blood Pressure” value ([2]; Day 9, individual rats, 30-day protocol, listed as Aldosterone + salt) was 150 mmHg and 191 mmHg and 148 mmHg and 172 mmHg (2×) and 159 mmHg and 151 mmHg and 169 mmHg and the “Systolic Blood Pressure (mmHg)” value ([2]; Day 9) was 164 ± 5 mmHg. The “Systolic Blood Pressure” value ([2]; Day 10, individual rats, 30-day protocol, listed as Aldosterone + salt) was 156 mmHg and 196 mmHg and 149 mmHg and 175 mmHg (2×) and 165 mmHg and 151 mmHg and 172 mmHg, the “Systolic Blood Pressure (mmHg)” value ([2]; Day 10) was 168 ± 6 mmHg and the “Systolic Blood Pressure” value ([2]; Day 11, individual rats, 30-day protocol, listed as Aldosterone + salt) was 154 mmHg and 201 mmHg and 155 mmHg (2×) and 178 mmHg and 181 mmHg and 163 mmHg and 175 mmHg. The “Systolic Blood Pressure (mmHg)” value ([2]; Day 11) was 171 ± 6 mmHg, the “Systolic Blood Pressure” value ([2]; Day 12, individual rats, 30-day protocol, listed as Aldosterone + salt) was 159 mmHg and 207 mmHg and 161 mmHg and 190 mmHg (2×) and 186 mmHg and 170 mmHg and 163 mmHg and the “Systolic Blood Pressure (mmHg)” value ([2]; Day 12) was 178 ± 6 mmHg. The “Systolic Blood Pressure” value ([2]; Day 13, individual rats, 30-day protocol, listed as Aldosterone + salt) was 161 mmHg and 210 mmHg and 166 mmHg (2×) and 196 mmHg and 191 mmHg and 172 mmHg and 194 mmHg, the “Systolic Blood Pressure (mmHg)” value ([2]; Day 13) was 182 ± 6 mmHg and the “Systolic Blood Pressure” value ([2]; Day 14, individual rats, 30-day protocol, listed as Aldosterone + salt) was 164 mmHg and 208 mmHg and 170 mmHg and 204 mmHg and 192 mmHg (2×) and 181 mmHg and 159 mmHg and 172 mmHg. For the same compound, the “Systolic Blood Pressure (mmHg)” value ([2]; Day 14) was 182 ± 6 mmHg, the “Systolic Blood Pressure” value ([2]; Day 15, individual rats, 30-day protocol, listed as Aldosterone + salt) was 171 mmHg and the “Systolic Blood Pressure (mmHg)” value ([2]; Day 15) was 181 ± 5 mmHg. For the same compound, the “Systolic Blood Pressure (mmHg)” value ([2]; Day 16) was 187 ± 6 mmHg, the “Systolic Blood Pressure (mmHg)” value ([2]; Day 17) was 195 ± 7 mmHg and the “Systolic Blood Pressure (mmHg)” value ([2]; Day 18) was 196 ± 6 mmHg. For the same compound, the “Systolic Blood Pressure (mmHg)” value ([2]; Day 19) was 200 ± 6 mmHg, the “Systolic Blood Pressure (mmHg)” value ([2]; Day 20) was 203 ± 5 mmHg and the “Systolic Blood Pressure (mmHg)” value ([2]; Day 21) was 208 ± 4 mmHg. The “Systolic Blood Pressure (mmHg)” value ([2]; Day 22) was 209 ± 4 mmHg, the “Systolic Blood Pressure (mmHg)” value ([2]; Day 23) was 208 ± 4 mmHg and the “Systolic Blood Pressure (mmHg)” value ([2]; Day 24) was 210 ± 3 mmHg. The “Systolic Blood Pressure (mmHg)” value ([2]; Day 25) was 210 ± 4 mmHg, the “Systolic Blood Pressure (mmHg)” value ([2]; Day 26) was 210 ± 3 mmHg and the Systolic Blood Pressure ([2]; aldosterone + salt, uninephrectomized rats, up to 30 days, eplerenone 100 mg/kg/day) was “induced severe hypertension; also recorded: progressive increase in blood pressure with time”.
